Test results taken from publication PMC3488456 (Bioorganic & medicinal chemistry letters, 2012).

How the values were obtained:
Rev-erbα = target: T1, Rev-erbα (Homo sapiens, UniProt P20393); assay type: cell-based
T1 sequence (P20393 1-614): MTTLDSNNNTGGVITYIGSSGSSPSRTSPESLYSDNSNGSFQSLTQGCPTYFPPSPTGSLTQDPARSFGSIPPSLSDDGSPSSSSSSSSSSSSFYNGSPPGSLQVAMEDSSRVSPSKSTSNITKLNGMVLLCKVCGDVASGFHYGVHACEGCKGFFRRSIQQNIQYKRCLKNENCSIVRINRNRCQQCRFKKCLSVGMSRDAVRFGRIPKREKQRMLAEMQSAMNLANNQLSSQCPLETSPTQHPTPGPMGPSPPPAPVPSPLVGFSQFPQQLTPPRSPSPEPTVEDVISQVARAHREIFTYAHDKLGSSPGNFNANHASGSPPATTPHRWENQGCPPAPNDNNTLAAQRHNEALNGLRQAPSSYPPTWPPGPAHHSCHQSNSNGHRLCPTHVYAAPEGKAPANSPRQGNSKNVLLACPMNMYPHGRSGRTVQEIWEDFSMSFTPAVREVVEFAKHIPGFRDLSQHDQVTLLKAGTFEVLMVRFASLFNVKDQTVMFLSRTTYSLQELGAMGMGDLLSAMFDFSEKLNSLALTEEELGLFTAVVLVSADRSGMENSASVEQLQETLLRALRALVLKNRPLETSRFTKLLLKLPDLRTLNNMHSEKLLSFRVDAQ

LXRβ = conditions: reporter-gene assay; cited from earlier work
Mouse brain penetration = assay type: in vivo, C57Bl6 mice; conditions: mice
FXR = conditions: same FRET assay; cited from earlier work
RORα = conditions: same FRET assay; cited from earlier work
SF1 = conditions: same FRET assay; cited from earlier work
Rat pharmacokinetics = assay type: in vivo, Sprague-Dawley rats; conditions: for clearance: Sprague-Dawley, rat, in vivo, iv, 1 mg/kg
LRH1 = conditions: same FRET assay; cited from earlier work
LXRα = conditions: reporter-gene assay; cited from earlier work

CCOC(=O)C1Cc2ccccc2CN1C(=O)c1ccno1 (centres unmarked) [Compound 3n]
EC50 (Rev-erbα): 2500 nM

CC(C)(C)OC(=O)CN(Cc1ccc(Cl)cc1)Cc1ccc([N+](=O)[O-])s1 [Compound 1]
activity on LXRβ (LXRβ): no activity
brain penetration (in words) (Mouse brain penetration): good brain penetration
activity on FXR (FXR): no activity
activity on RORα (RORα): no activity
activity on SF1 (SF1): no activity
clearance (Rat pharmacokinetics): 353 mL/min/kg
oral bioavailability / oral absorption (in words) (Rat pharmacokinetics; rats): poor oral bioavailability
plasma clearance (in words) (Rat pharmacokinetics; rats): very high plasma clearance
volume of distribution (in words) (Rat pharmacokinetics; rats): high volume of distribution
rodent pharmacokinetics (in words) (Rat pharmacokinetics; rodent): poor
activity on LRH1 (LRH1): no activity
activity on LXRα (LXRα): no activity

O=C(c1cccc2ccccc12)N1Cc2ccccc2CC1COCc1ccccc1 (centres unmarked) [Compound 6d]
clearance (Rat pharmacokinetics): 39 mL/min/kg
oral bioavailability / oral absorption (in words) (Rat pharmacokinetics; rats): poor oral absorption

O=C(c1cccc2ccccc12)N1Cc2ccccc2CC1CNCc1ccccc1 (centres unmarked) [Compound 7d]
clearance (Rat pharmacokinetics): 43 mL/min/kg
oral bioavailability / oral absorption (in words) (Rat pharmacokinetics; rats): poor oral absorption
